Columns and labels:
Assay type in all cases: cell-based
Brd2 = Brd2 (Homo sapiens, UniProt P25440); test: Time-dependent BET degradation, immunoblot; parameters: endogenous in cells; host or cells: HEK293 (CRL-1573), HeLa (CCL-2); settings: HeLa, Brd2, 1 μM
Protocol: Immunoblotting. Proteins were separated by SDS-PAGE on NuPage 4-12% Bis-Tris gels, followed by transfer to Amersham Protran 0.45 NC nitrocellulose membrane (GE Healthcare) using wet transfer. Membranes were blocked using 5% w/v milk in Tris-buffered saline (TBS) with 0.1% Tween-20. Blots were probed (overnight at 4 °C) using anti-Brd2 (Abcam ab139690, 1:2,000 dilution), anti-Brd3 (Abcam ab50818, 1:500 dilution), and anti-Brd4 (Abcam ab128874, 1:1,000 dilution) primary antibodies, as appropriate. The next day, blots were washed with TBST and incubated (1 h at Room temperature) with anti-Tubulin hFAB-rhodamine (BioRad, 12004166) primary antibody, and either anti-rabbit IRDye 800CW (Licor 1:1,000 dilution) or anti-mouse IRDye 800CW (Licor 1:1,000 dilution) secondary antibody. Blots were developed using a Bio-Rad ChemiDoc MP Imaging System, and band quantification was performed using Image Studio software (LiCor). Band intensities were normalized to the tubulin loading control and reported as % of the average 0.1% DMSO vehicle intensity. Degradation data was plotted and analysed using Prism (Graphpad, version 8).
HEK293 (0.5×10^6) cells were seeded in standard 6-well plates (2 mL medium) overnight before treatment with compounds at 1 μM concentration, with a final DMSO concentration of 0.1% v/v. After incubation for the desired time (0-24 hrs), cells were washed with DPBS (Gibco) and lysed using 85 μL RIPA buffer (Sigma-Aldrich) supplemented with complete Mini EDTA-free protease inhibitor cocktail (Roche) and benzonase. Lysates were clarified by centrifugation (20000 g, 10 min, 4° C.) and the total protein content of the supernatant was quantified using a Bradford colorimetric assay. Samples were prepared using equal amounts of total protein and LDS sample buffer (Invitrogen). Band intensities were normalized to the tubulin loading control and reported as % of the average 0.1% DMSO vehicle intensity. Degradation data was plotted and analysed using Prism (Graphpad, version 8).
MZ1 and 11JQ17 were used at 1 μM (4 h) for positive and negative controls, respectively. […]

Brd4 = molecular target: T1, Brd4 (Homo sapiens, UniProt O60885); test: Mechanistic evaluation: Brd4 degradation after inhibitor pre-treatment; settings: HEK293, 1 μM degrader 4 h
T1 construct: immunoblot analysis of Brd4 following 4 h treatment of HEK293 cells; endogenous in cells; host or cells: HEK293 (CRL-1573)
Protocol: HeLa (5×10^5) and HEK293 (1×10^6) cells were seeded in standard 6-well plates (2 mL medium) overnight before pre-treatment with inhibitors (10 μM bortezomib, 10 μM capzimin, 10 μM JQ1). After a 0.5 h pre-incubation time, cells were subsequently treated with vehicle, 1 μM MZ1 or 1 μM 11JQ15, yielding a final overall DMSO concentration of 0.2% v/v. After 4 h incubation, cells were washed with DPBS (Gibco) and lysed using 85 μL RIPA buffer (Sigma-Aldrich) supplemented with cOmplete Mini EDTA-free protease inhibitor cocktail (Roche) and benzonase. Lysates were clarified by centrifugation (20000 g, 10 min, 4° C.) and the total protein content of the supernatant was quantified using a Bradford colorimetric assay. Samples were prepared using equal amounts of total protein and LDS sample buffer (Invitrogen).
Brd4 band intensities were normalized to tubulin loading control and reported in FIG. 6B as % of the average 0.1% DMSO vehicle intensity. Each bar is mean±SEM of three independent experiments performed in duplicate (n=3).

HEK293 cells = test: Unbiased whole proteome analysis by TMT-labelling MS; settings: HEK293, 1 μM, 4 h, n=3
Protocol: HEK293 (2.2×10 6) cells were seeded in 10 cm plates (10 mL medium) overnight before treatment with 1 μM compound for a final DMSO concentration of 0.1% v/v. After 4 h incubation time, cells were washed with 2× with DPBS (Gibco) and lysed using 500 μL lysis buffer (100 mM Tris, 4% (w/v) SDS, pH 8.0) supplemented with cOmplete Mini EDTA-free protease inhibitor cocktail (Roche) and benzonase. Lysates were briefly sonicated (2×10 s), clarified by centrifugation (20000 g, 10 min, 4° C.) and the total protein content of the supernatant was quantified using a BCA assay (Thermo Fisher Scientific).
Sample processing, digestion, desalting, labelling, and fractionation were performed at Fingerprint Proteomics (University of Dundee) as described previously [Gadd et al. 10.1038/nchembio.2329]. FIG. 7 depicts fold change of abundance of 7882 proteins comparing 11JQ15 to DMSO treatment (left) and comparing 1 μM 11JQ17 to DMSO treatment (right), as well as their respective p-values (t-test; n=3).

[1] = system: Brd4, c-MYC, cleaved PARP (C-PARP); test: Immunoblot of Brd4, c-MYC and cleaved PARP in MV4-11 cells
Protocol: MV4-11 (0.7×10^6 cells/mL) were seeded in 10 cm plates (10 mL DMEM supplemented with 10% FBS and L-glutamine) overnight before treatment with compounds at the desired concentration and with a final DMSO concentration of 0.1% v/v. After 6 h incubation time, cells were washed with 2× with DPBS (Gibco) and lysed using 85 μL RIPA buffer (Sigma-Aldrich) supplemented with cOmplete Mini EDTA-free protease inhibitor cocktail (Roche) and benzonase. Lysates were clarified by centrifugation (20000 g, 10 min, 4° C.) and the total protein content of the supernatant was quantified using a Bradford colorimetric assay. Samples were prepared using equal amounts of total protein and LDS sample buffer (Invitrogen). For immunoblot analysis, the following antibodies were used: anti-Brd4 (ab128874, 1:1,000 dilution), anti-cmyc (ab32072, 1:1000 dilution), anti-CPARP (CST-9541T, 1:1,000 dilution), and anti-Tubulin hFAB-rhodamine (BioRad, 12004166, 1:10000 dilution).

[2] = MV4-11, increasing concentrations, 6 h

Sequence of Brd2 (P25440 whole entry): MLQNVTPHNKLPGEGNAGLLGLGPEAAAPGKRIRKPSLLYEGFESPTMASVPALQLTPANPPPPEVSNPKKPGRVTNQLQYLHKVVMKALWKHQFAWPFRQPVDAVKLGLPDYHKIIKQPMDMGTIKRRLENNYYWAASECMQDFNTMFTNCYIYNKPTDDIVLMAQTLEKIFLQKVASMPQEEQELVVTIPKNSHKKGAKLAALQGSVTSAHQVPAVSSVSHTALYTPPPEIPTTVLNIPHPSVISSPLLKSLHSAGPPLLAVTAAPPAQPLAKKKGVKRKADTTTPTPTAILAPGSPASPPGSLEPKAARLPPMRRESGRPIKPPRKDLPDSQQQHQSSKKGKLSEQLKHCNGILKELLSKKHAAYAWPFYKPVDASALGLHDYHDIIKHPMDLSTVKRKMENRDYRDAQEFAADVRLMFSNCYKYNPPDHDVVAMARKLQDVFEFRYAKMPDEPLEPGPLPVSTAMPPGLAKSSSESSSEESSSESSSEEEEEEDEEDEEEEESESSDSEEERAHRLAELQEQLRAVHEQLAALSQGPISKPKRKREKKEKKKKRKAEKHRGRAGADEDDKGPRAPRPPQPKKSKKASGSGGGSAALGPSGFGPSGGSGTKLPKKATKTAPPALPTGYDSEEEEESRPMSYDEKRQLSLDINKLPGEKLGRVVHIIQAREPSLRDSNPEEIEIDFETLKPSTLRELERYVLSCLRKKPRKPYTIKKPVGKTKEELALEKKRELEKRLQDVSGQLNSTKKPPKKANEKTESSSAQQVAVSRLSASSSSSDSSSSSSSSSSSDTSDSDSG

With `Cc1sc2c(c1C)C(c1ccc(Cl)cc1)=N[C@@H](CC(=O)NCCCCNC(=O)c1cc(S)c3ncc(C(=O)NCCc4nccs4)cc3c1)c1nnc(C)n1-2` [Example 11JQ7] the Dmax at 1 µM (Brd2) was 50%, the “Abs. T1/2” value (Brd2; time to deplete 50% of the protein relative to DMSO) was 4 h and the “T1/2” value (Brd2; time to reach 50% of the Dmax) was 4 h.
`Cc1sc2c(c1C)C(c1ccc(Cl)cc1)=N[C@@H](CC(=O)NCCOCCNC(=O)c1cc(SC(=O)c3ccccc3)c3ncc(C(=O)NCCc4nccs4)cc3c1)c1nnc(C)n1-2` [Example 11JQ15] was tested, and the “Brd4 degradation in the presence of JQ1” value (Brd4; 10 μM JQ1 pre-treatment 0.5 h) was “completely blocked”, the “Brd4 degradation in the presence of bortezomib” value (Brd4; 10 μM bortezomib pre-treatment 0.5 h) was “completely blocked” and the “Brd4 degradation in the presence of capzimin” value (Brd4; 10 μM capzimin pre-treatment 0.5 h) was “significantly blocked”. For the same compound, the “fold change of abundance of 7882 proteins vs DMSO (FIG. 7)” value (HEK293 cells) was “selective degradation of Brd2, Brd3 and Brd4”.
In the case of `Cc1sc2c(c1C)C(c1ccc(Cl)cc1)=N[C@@H](CC(=O)NCCCCNC(=O)c1cc(SC(=O)c3ccccc3)c3ncc(C(=O)NCCc4nccs4)cc3c1)c1nnc(C)n1-2` [Example 11JQ16], the “increase in C-PARP compared with JQ1 and 11JQ18” value ([1]; MV4-11, 6 h) is reported as “significantly greater than inhibitor (JQ1) alone and the negative control (11JQ18)”, the “Brd4 and c-MYC levels (FIG. 9)” value [1, 2] is reported as “depletion of Brd4 and c-MYC levels” and the “cleaved PARP (FIG. 9)” value [1, 2] is reported as “corresponding increase in cleaved PARP”.

From US11925690B2, “Bifunctional molecules for targeting Rpn11” (AMPHISTA THERAPEUTICS LTD, priority 2018, dated 2024)
